In patent US20140100183A1, “CENTRAL ADMINISTRATION OF STABLE FORMULATIONS OF THERAPEUTIC AGENTS FOR CNS CONDITIONS” (The Regents of the University of Colorado, a body corporate, priority 2006, published 2014):
Values joined by “and” are separate entries in the source; they are usually repeats but may differ in a detail not shown here. Equal entries are not always repeated. Structures can show the parent of a compound that is named as a salt. Where two headings read alike, the source gives them in different places. Marks after values point to notes of the source that are not given here.

Assays:
human = conditions: cited from earlier work
[1] = cited from earlier work; for Comments: solubility: qualitative, solvents as given in the source
[2] = system: patients diagnosed with epilepsy disorders; assay: ICV or cisterna magna treatment of epilepsy (Example 6); type: in vivo, human; conditions: central administration, 0.01 to 0.1 mg per hour, 1 week
From the text: After 1 week of treatment, epileptic frequency is reduced.

[3] = system: pentylenetetrazole (PTZ) seizure induction in rats; assay: Pentylenetetrazole (PTZ) seizure induction model, ICV administration; type: in vivo, rat; conditions: for % Change: drug group vs vehicle group (-V); for Rodent ICV dose: effective daily dose, blocking seizures; for Efficacy: effective in blocking seizures
Method: Rats are anesthetized, placed in a stereotaxic instrument and a burr hole opened over one anterior lateral ventricle. A cannula is lowered to the ventricle and 5 μl of solution containing the drug is injected into the ventricle over 10 minutes. The incision is then closed and the animal allowed to regain consciousness and remain conscious for 10 minutes. After 10 minutes has elapsed, pentylenetetrazole (PTZ, 10 mg/ml in saline) is injected through a tail-vein catheter at a constant rate of infusion (1 ml/min, Razel syringe pump) until a motor seizure is induced. PTZ seizures are identified as myoclonic jerking followed by clonus and tonus. The time from the initial application of PTZ to the first clonic seizure (i.e., forelimb clonus) is measured and defined as “latency to seiqure onset”. The total amount of PTZ infused is calculated and then divided by each rat;s body weight to obtain the dose (mg/kg) of PTZ. The dose required to attain status epilepticus is compared to the PTZ dose without antiseizure medication.

animals = assay: Behavioral toxicology: openfield, elevated plus, ataxia; type: in vivo
Method: Several animal models as described below were used to determine the efficacy of formulations containing different concentrations of the drug. The animals were also tested for toxic effects as described in the table, below.
All animals are assessed for ataxia, which is a measure of altered gate and ability to change body position. They are also placed on their acks and time to “righting” measured.

[4] = system: anxiety in rats (elevated plus maze, open field); assay: Elevated plus maze and open field conflicts test after ICV antidepressants; type: in vivo, rat; conditions: for efficacy following ICV administration: elevated plus maze and open field conflicts test; for Rodent ICV dose: anxiety reduction; for % of Oral dose: rodent ICV dose vs human oral equivalent
Method: Various antidepressants were injected via ICV, and animals monitored in standard elevated plus maze and open field conflicts test.
Rats are placed in the center of a pluz-shaped maze. The arms are 13 cm wide; two arms were open and two are enclosed by 32 cm high walls. The maze is elevated off the flor by 51 cm. The percent of time and distance traveled in each type of arm over the 4 minute test period is calculated by computer. Increased time and distance traveled in the open arms is thought to reflect anxiolytic activity.
Rats are place against 1 side of a 104 cm square box with 32 cm sides. The activity of the rat is monitored by computer over a 4 minute testing period. A computer divides the openfied space into 25 equal squares arranged into an outer:ring” of 16 squares, a middle region of 8 squares and a central square. The percent of time and distarnce traveled in the center square by rats receiving the drug are calculated and compared to rats receiving a saline control. Increased time and distance traveled in the center square is thought to reflect anxiolytic activity.

[5] = system: primary mouse cortical neuron cultures; assay: Toxicity in primary mouse cortical neuron cultures (MTT)
Method: In addition, a preliminary assessment of the toxicity of cyclodextrin in primary mouse cortical neuron cultures was performed. […] After dissection, and cellular dissociation, the cells were washed with Dulbecco's Modified Eagle's Medium with 10% fetal bovine serum. Following recentrifugation, the cells resuspended in plating medium, counted with trypan blue and plated at a constant density of 6.5×10^4 cells per well in a 96-well pre-coated plate. […] The cultures were maintained at 37° C. in a humidified atmosphere of 5% CO2. […] The cultures were incubated and cell toxicity assayed at 24, 48 and 72 hours. Viability was assessed by the MTT (3-(4,5 diethylthiazol-2-yl)-2,5)diphenyltetrazolium bromide) assay, CellTiter 96 Non-radioactive cell Proliferation Assay (Promega, Madison Wis.) and by visual examination.

[6] = system: patients diagnosed with psychotic disorders; assay: ICV or cisterna magna treatment of psychotic disorders (Example 5); conditions: central administration, 0.01 to 0.1 mg per hour, 1 week
Method: A 5 mg/ml solution of the active agent is solubilized in aqueous solution using beta-hydroxypropyl cyclodextrin, made isotonic with NaCl, and the pH is maintained at 7.4 with 10 mM sodium phosphate. […] The stabilized solution is inserted into a fluid reservoir attached to a Medtronic Synchromed-II intrathecal delivery system. The stabilized formulation is intracerebroventricularly or cistema magna injected into patients diagnosed with psychotic disorders.
Injection is continuous, using a computerized pump to provide a delivery rate of 0.01 to 0.1 mg of the active agent per hour, depending on the severity of symptoms.

schizophrenia patients = conditions: Iqbal et al. 2003; cited from earlier work
[7] = system: sensory inhibition deficits in DBA/2 mice; assay: Chronic ICV clozapine (7 day minipump), sensory inhibition; type: in vivo, mouse; conditions: 0.25 μl/hr for 7 days
Method: DBA/2 mice are implanted with a chronic indwelling cannula aimed at one anterior lateral ventricle (Alzet Brain Infusion system) which is connected to an osmotic minipump delivering 0.25 μl/hr for 7 days. On the 7th day, the mouse is anesthetized, placed in a stereotaxic instrument, a burr hole opened in the skull over the contralateral dorsal hippocampus and a recording electrode lowered to the CA3 region of the hippocampus. Evoked EEG responses to closely paired (0.5 msec apart) identical tones are recorded.

[8] = for prevention of precipitation on titration: even at very alkaline pH (≈11)
[9] = system: prenatally stressed Sprague Dawley rats; assay: Chronic ICV clozapine by osmotic minipump in schizophrenia model (Example 3); type: in vivo, rat
Method: After 1 week recovery from surgery, at least 10 baseline recording sessions are performed in which 30 pairs of identical auditory click stimuli are presented and the evoked potentials are recorded and averaged. This establishes the baseline parameters for sensory inhibition in the rats.
Formulations described above are administered into the ventricles using an osmotic minipump to deliver 0.5 μl/hr for 14 days. The rats have a chronic recording electrode implant that allows repeated awake recording over several days and a ventricular cannula to permit withdrawal of CSF. Sensory inhibition is recorded on alternate days for the 14 days of the pump duration. At the end of each recording session, blood and CSF are sampled under light anesthesia to assess levels of the active agent. Brain penetration and distribution are assessed using tritiated active agent/excipient complex in the osmotic minipump in a separate group of animals. […] A rat model of deficient sensory inhibition is used which allows us to sample both fluids repeatedly over several days.
Two days later, alternate day recording of sensory inhibition begins and continues for the full 14 days of the pump. […] Data are analyzed by analysis of variance and appropriate a posteriori analyses performed wherever significant differences are found (p<0.05).

[10] = cited from earlier work
[11] = system: sensory inhibition deficits in DBA/2 mice; assay: Sensory inhibition (paired auditory stimuli, TC ratio) after acute ICV administration; type: in vivo, mouse; conditions: for conditioning amplitude / test amplitude: vs baseline; for Rodent ICV dose: effective daily dose, mice
Method: The following methods were used to record the sensory inhibition.
The deficit in sensory inhibition can be quantified using the paired stimulus paradigm in which 2 identical stimuli are delivered 0.5 seconds apart and the electrophysiological response to each is recorded. In normal individuals, the response to the second, or test, stimulus, occurring 50 msec after stimulus onset, is reduced compared to the response to the first, or conditioning stimulus. However, schizophrenia patients have similar magnitude responses to both stimuli: The “TC ratio” is calculated by dividing the test amplitude by the conditioning amplitude. […] In normal individuals, the TC ratio is generally less than 0.4 while schizophrenia patients commonly have TC ratios above 0.5 and often approaching or exceeding 1.0.
In the present study, briefly, 5 baseline records were obtained in response to the paired auditory stimuli, prior to drug administration. […] Recordings were obtained at 5 minute intervals for 90 minutes post injection. Data analyzed included the amplitude of the response to the first stimulus (conditioning amplitude), amplitude of the response to the second stimulus (test amplitude) and the TC ratio (test amplitude/conditioning amplitude). This final parameter gives a measure of the level of inhibition in the circuit initiated by the conditioning stimulus. […] DBA/2 mice routinely have TC ratios of ≧0.8.

[12] = rodent ICV dose vs human oral equivalent
[13] = human dose is IV not oral for this drug

## NC(=O)OCC(COC(N)=O)c1ccccc1 [Felbamate, 2-phenyl-1,3-propanediol dicarbamate]
human; effective daily dose, oral
  Human oral equivalent: 20 mg/kg
[1]
  Comments: solubility: Freely soluble in water and in alcohol; soluble in acetone; insoluble in ether and in benzene
[2]
  alleviation of seizures: efficacious therapeutic alleviation of seizures
[3]
  % Change: 60%
  Rodent ICV dose: 0.08242 mg/kg
  Efficacy: effective in blocking
[3]; listed as felbamate
  Rodent ICV dose: about 0.08242 mg/kg
[3]; [12]
  % of Oral dose: 0.4%
animals; Behavioral: openfield, elevated plus, ataxia
  Highest non-toxic concentration: 0.056 mg/mL

## Nc1ncnc2c1ncn2[C@@H]1O[C@H](CO)[C@@H](O)[C@H]1O [Adenosine]
human; [13]
  Human oral equivalent: 0.1 mg/kg
[4]
  efficacy following ICV administration: efficacy
[3]
  % Change: 90%
  Rodent ICV dose: 0.001336 mg/kg
  Efficacy: effective in blocking
[3]; [13]
  % of Oral dose: 1.3%
animals; rat, in vivo
  Highest non-toxic concentration: 0.0694 mg/mL

## NC(=O)N1c2ccccc2C=Cc2ccccc21 [Tegretol, 5H-dibenz[b,f]azepine-5-carboxamide]
human; effective daily dose, oral
  Human oral equivalent: 6.66 mg/kg
[1]
  Comments: solubility: Slightly soluble in water and in alcohol
[2]
  alleviation of seizures: efficacious therapeutic alleviation of seizures
[3]
  % Change: 60%
  Rodent ICV dose: 0.00888 mg/kg
  Efficacy: effective in blocking
[3]; [12]
  % of Oral dose: 0.13%

## cyclodextrin
[5]; 24 hours, 0.002% to 0.1% in culture media
  toxicity of cyclodextrin alone: no toxicity

## O=C1NC(=O)C(c2ccccc2)(c2ccccc2)N1 [PHENYTOIN, 5,5-diphenyl-2,4-imidazolidinedione]
[1]
  Comments: solubility: Very soluble in water
[2]
  alleviation of seizures: efficacious therapeutic alleviation of seizures

## OCCOCCN1CCN(C2=Nc3ccccc3Sc3ccccc32)CC1 [Quetiapine]
[6]
  alleviation of psychotic symptoms: efficacious therapeutic alleviation of psychotic symptoms

## O=C1Cc2cc(CCN3CCN(c4nsc5ccccc45)CC3)c(Cl)cc2N1 [Geodon]
[6]
  alleviation of psychotic symptoms: efficacious therapeutic alleviation of psychotic symptoms

## CCCCNc1cc(C(=O)O)cc(S(N)(=O)=O)c1Oc1ccccc1 [Bumex]
human; effective daily dose, oral
  Human oral equivalent: 0.033 mg/kg
[2]
  alleviation of seizures: efficacious therapeutic alleviation of seizures
[3]
  % Change: 90%
  Rodent ICV dose: 0.000364 mg/kg
  Efficacy: effective in blocking
[3]; [12]
  % of Oral dose: 1.1%

## CN1CCN(C2=Nc3cc(Cl)ccc3Nc3ccccc32)CC1 [Clozapine, 8-chloro-11-(4-methyl-1-piperazinyl)-5H-dibenzo [b,e][1,4] diazepine]
human; effective daily dose, oral
  Human oral equivalent: 7.5 mg/kg
rats; chronic ICV versus intraperitoneal (IP)
  accumulation of drug in peripheral tissues and organs: significantly less accumulation of drug in peripheral tissues and organs
rats; rat, in vivo
  CNS pathology and systemic toxicity: minimal or no CNS pathology and low systemic toxicity
Schizophrenia patients
  patients who discontinue due to systemic side effects: 17%
[7]
  response to the second tone: significant decreases in the response to the second tone
[8]; acidified with HCl, no solubility enhancing agent
  pH until which addition of NaOH has little effect on solubility: ~6.5
[8]; cyclodextrin
  prevention of precipitation on titration: prevented clozapine precipitation
[8]; cyclodextrin-to-clozapine molar ratio of 2:1
  pH up to which precipitation is inhibited: ≤ 9.0
[8]; octyl glucoside
  prevention of precipitation on titration: prevented clozapine precipitation
[8]; polyethylene glycol (PEG 4000)
  prevention of precipitation on titration above neutral pH: not able to prevent clozapine precipitation
[8]; polyvinylpyrrolidone (PVP 10K)
  prevention of precipitation on titration above neutral pH: not able to prevent clozapine precipitation
[9]; 0.5 μl/hr for 14 days, steady state
  plasma levels: extremely low or not detectable
[9]; 14 days
  sensory inhibition: improvement in sensory inhibition
[10]; acidic conditions, pH 2
  partition coefficient: 0.4
[10]
  Solubility in water: practically insoluble
[10]; pH 7.4 (Merck Index, 2004)
  octanol-to-water partition coefficient: 1000
[11]; 0.5 μg ICV
  conditioning amplitude: increases in conditioning amplitude, though the latter did not reach statistical significance
  test amplitude: decreases in test amplitude
[11]; 1.0 μg ICV
  time post injection with significantly reduced test amplitudes: 35 min
  conditioning amplitude: significantly increased conditioning amplitudes
  test amplitude: significantly reduced test amplitudes
[11]; acute effective dose for improvement of sensory inhibition deficits in mice
  Efficacy: acute effective
[11]
  Rodent ICV dose: 0.040 mg/kg
[11]; listed as clozapine
  Rodent ICV dose: about 0.040 mg/kg
[11]; [12]
  % of Oral dose: 0.5%
[11]; same mouse model, vs Simosky et al 2002
  ICV dose lower than systemically administered dose: > 1000 fold
[5]; In vitro primary cortical cell culture
  Highest non-toxic concentration: 10 µg/mL
[5]; clozapine formulated with cyclodextrin
  final concentration at which significant toxicity was observed: ≥ 10 μg/mL and ≥ 30 μM
animals; rat, in vivo
  Highest non-toxic concentration: 50 mg/mL

## CN(C)CCCN1c2ccccc2CCc2ccc(Cl)cc21 [Clomipramine, 3-(3-Chloro-10,11-dihydro-5H-dibenz[b,f]azepin-5-yl)propyldimethylamine hydrochloride]
human; effective daily dose, oral
  Human oral equivalent: 4.16 mg/kg
[4]; effective daily dose
  Rodent ICV dose: 0.37 mg/kg
[4]
  % of Oral dose: 8.8%

## Nc1nnc(-c2cccc(Cl)c2Cl)c(N)n1 [Lamictal]
human; effective daily dose, oral
  Human oral equivalent: 3.33 mg/kg

## CCCC(CCC)C(=O)O [Valproate, 2-Propylpentanoic acid]
human; effective daily dose, oral
  Human oral equivalent: 1 mg/kg

## O=C1CN=C(c2ccccc2)c2cc([N+](=O)[O-])ccc2N1 [NITRAZEPAM, 1,3-Dihydro-7-nitro-5-phenyl-2H-1,4-benzodiazepin-2-one]
[1]
  Comments: solubility: Soluble 1 in 12 of water, 1 in 14 of alcohol, and 1 in 3.5 of chloroform; insoluble in ether; freely soluble in methyl alcohol

## O=C1CCc2ccc(OCCCCN3CCN(c4cccc(Cl)c4Cl)CC3)cc2N1 [Aripiprazole]
[6]
  alleviation of psychotic symptoms: efficacious therapeutic alleviation of psychotic symptoms

## NNCCc1ccccc1 [Phenelzine, 2-Phenylethylhydrazine]
human; effective daily dose, oral
  Human oral equivalent: 1.5 mg/kg
[4]; effective daily dose
  Rodent ICV dose: 1.8 mg/kg
[4]
  efficacy following ICV administration: efficacy
  % of Oral dose: 120%
[4]; rat, in vivo
  Efficacy: anxiety reduction

## COc1cc2nc(N3CCN(C(=O)c4ccco4)CC3)nc(N)c2cc1OC.Cl [PRAZOSIN, 2-[4-(2-Furoyl)piperazin-1-yl]-6,7 dimethoxyquinazolin-4-ylamine hydrochloride]
[1]
  Solubility in water: very slightly soluble in water (<1 mg/ml) and readily soluble in organic solvents such as ethanol and acetone
  Comments: solubility: very slightly soluble in water (<1 mg/ml) and readily soluble in organic solvents such as ethanol and acetone

## CCN(CC)CCN1C(=O)CN=C(c2ccccc2F)c2cc(Cl)ccc21 [FLURAZEPAM, 7-chloro-1-[2-(diethylamino)ethyl]-5-(o-fluorophenyl)-1,3-dihydro-2H-1,4-benzodiazepin-2-one dihydrochloride]
[1]
  Comments: solubility: Soluble in water, in alcohol, and in 0.1N hydrochloric acid.

## Cc1nccn1CC1CCc2c(c3ccccc3n2C)C1=O (centres unmarked) [ondansetron]
[11]; 5 μg dose ICV
  TC ratio: significantly reduced TC ratios

## OCCOCCN1CCN(C(c2ccccc2)c2ccc(Cl)cc2)CC1 (centres unmarked) [HYDROXYZINE, 2-[2-[4-(p-chlorobenzhydryl)-1-piperazinyl]ethoxy]ethanol dihydrochloride.]
[1]
  Comments: solubility: slightly soluble in water and isopropyl alcohol, sparingly soluble in ethanol

## CNCCC(Oc1ccc(C(F)(F)F)cc1)c1ccccc1 (racemic) [Fluoxetine, (+/−)-N-Methyl-3-phenyl-3-(alpha,alpha,alpha-trifluoro-p-tolyloxy)propylamine hydrochloride]
human; effective daily dose, oral
  Human oral equivalent: 0.33 mg/kg
[4]; estimated effective dose
  Rodent ICV dose: 0.74** mg/kg
[4]
  % of Oral dose: 224%

## CC(C)NCC(O)COc1cccc2ccccc12.Cl (centres unmarked) [PROPRANOLOL, 1-(Isopropylamino)-3-(1-naphthyloxy)-2-propanol hydrochloride]
[1]
  Comments: solubility: soluble in methanol or ethanol but which has no appreciable solubility in water at physiological pH

## C=CCN1CC[C@]23c4c5ccc(O)c4O[C@H]2C(=O)CC[C@@]3(O)[C@H]1C5 [NALOXONE, (−)-17-Allyl-4, 5α-epoxy-3,14-dihydroxymorphinan-6-one hydrochloride]
[1]
  Comments: solubility: freely soluble in USP alcohol and very soluble in water

## CCC(=O)C(CC(C)N(C)C)(c1ccccc1)c1ccccc1 (centres unmarked) [METHADONE, 1,1-Diphenyl-1-(2-dimethylaminopropyl)-2-butanone]
[1]
  Comments: solubility: Soluble in water; freely soluble in alcohol and in chloroform; practically insoluble in ether and in glycerol
